# From patent publication US20240424111A1, “Degrader Compounds and Uses Thereof” (CALICO LIFE SCIENCES LLC, priority 2021, published 2024)
# Columns and labels:
# PTPN2 [1] = target: T1, PTPN2 (Homo sapiens, UniProt P17706); test: HiBiT PTPN2 degradation in 293T.109 (HiBiT-PTPN2) cells, 24 hours; type: cell-based; details: 293T.109 cells
# T1 construct: expressed in transfected cells; host or cells: 293T.109 (HiBiT-PTPN2), derived from 293T WT (ATCC)
# T1 sequence (P17706 1-415): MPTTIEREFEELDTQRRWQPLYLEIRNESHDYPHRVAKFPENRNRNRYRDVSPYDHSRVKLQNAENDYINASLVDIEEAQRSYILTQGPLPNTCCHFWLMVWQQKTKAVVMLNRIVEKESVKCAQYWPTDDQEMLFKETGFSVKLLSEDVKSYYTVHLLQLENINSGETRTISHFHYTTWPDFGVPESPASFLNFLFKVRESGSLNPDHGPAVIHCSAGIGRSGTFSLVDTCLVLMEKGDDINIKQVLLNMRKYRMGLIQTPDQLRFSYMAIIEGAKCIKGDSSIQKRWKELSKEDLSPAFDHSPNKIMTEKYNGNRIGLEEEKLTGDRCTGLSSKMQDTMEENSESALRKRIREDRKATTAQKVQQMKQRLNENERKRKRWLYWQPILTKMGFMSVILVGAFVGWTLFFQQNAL
# Source text: Dulbecco's modified Eagle medium (DMEM) without phenol red and fetal bovine serum (FBS) were purchased from Gibco (Grand Island, NY, USA). Nano-Glo® HiBiT Lytic Assay System was purchased from Promega (Medison, WI, USA). 293T. 109 (HiBiT-PTPN2) cell line was generated by ectopically expressing PTPN2 with N-terminal HiBiT fusion tag in 293T WT cell line purchased from ATCC (Manassas, VA, USA). Cell culture flasks and 384-well microplates were acquired from VWR (Radnor, PA, USA).
# PTPN2 Degradation Analysis
# (§1) PTPN2 degradation was determined based on quantification of luminescent signal using Nano-Glo® HiBiT Lytic Assay kit. Test compounds were added to the 384-well plate from a top concentration of 10 μM with 11 points, half log titration in duplicates. 293T. 109 cells were added into 384-well plates at a cell density of 5000 cells per well. The plates were kept at 37° C. with 5% CO2 for 24 hours. The cells treated in the absence of the test compound were the negative control and the cells without Nano-Glo® HiBiT Lytic reagent were the positive control. After 24-hour incubation, Nano-Glo® HiBiT Lytic Assay reagents were added to the cells. Luminescence was acquired on EnVision™ Multilabel Reader (PerkinElmer, Santa Clara, CA, USA).
# PTPN2 [2] = target: T2, PTPN2 (Mus musculus, UniProt Q06180); test: HiBiT PTPN2 degradation in B16F10.4 cells, 24 hours; type: cell-based
# T2 construct: HiBiT; host or cells: B16F10.4
# T2 sequence (Q06180 1-406): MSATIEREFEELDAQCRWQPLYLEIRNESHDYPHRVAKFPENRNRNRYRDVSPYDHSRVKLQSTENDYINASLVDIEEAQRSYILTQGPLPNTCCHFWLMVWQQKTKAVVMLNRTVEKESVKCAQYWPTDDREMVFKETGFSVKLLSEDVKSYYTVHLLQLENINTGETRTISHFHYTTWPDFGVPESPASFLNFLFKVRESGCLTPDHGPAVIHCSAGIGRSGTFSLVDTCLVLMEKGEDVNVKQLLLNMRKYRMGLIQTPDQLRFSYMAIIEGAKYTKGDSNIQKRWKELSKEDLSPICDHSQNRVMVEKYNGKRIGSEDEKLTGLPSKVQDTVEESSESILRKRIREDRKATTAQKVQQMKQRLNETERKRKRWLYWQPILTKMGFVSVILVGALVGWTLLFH
# Method: as §1
Compound,DC50 (PTPN2 [1]) [nM],DC50 (PTPN2 [2]) [nM]
Cc1nn(C2CCC(=O)NC2=O)c2ccc(-c3ccc(CC(=O)Nc4ccc5c(F)c(N6CC(=O)NS6(=O)=O)c(O)cc5c4)cc3)cc12 (centres unmarked) [Degrader 85],150 to 500,150 to 500
CC(C)n1c(=O)n(C2CCC(=O)NC2=O)c2ccc(N3CCC(CC(=O)Nc4ccc5c(F)c(N6CC(=O)NS6(=O)=O)c(O)cc5c4)CC3)cc21 (centres unmarked) [Degrader 35],≥ 500,150 to 500
CCn1nc(C2CCC(=O)NC2=O)c2ccc(C3CCN(CC(=O)N4CC(Oc5ccc6cc(O)c(N7CC(=O)NS7(=O)=O)c(F)c6c5)C4)CC3(F)F)cc21 (centres unmarked) [Degrader 12],< 50,50 to 150
CC(C)n1nc(C2CCC(=O)NC2=O)c2ccc(C3CCN(CC(=O)N4CC(Oc5ccc6cc(O)c(N7CC(=O)NS7(=O)=O)c(F)c6c5)C4)CC3(F)F)cc21 (centres unmarked) [Degrader 13],50 to 150,50 to 150
Cn1cc(C(=O)Nc2ccc3c(F)c(N4CC(=O)NS4(=O)=O)c(O)cc3c2)c2ccc(-c3ccc4c(c3)n(C)c(=O)n4C3CCC(=O)NC3=O)cc21 (centres unmarked) [Degrader 82],150 to 500,150 to 500
Cn1c(=O)n(C2CCC(=O)NC2=O)c2ccc(-c3ccc(CC(=O)Nc4ccc5c(F)c(N6CC(=O)NS6(=O)=O)c(O)cc5c4)cc3)cc21 (centres unmarked) [Degrader 25],< 50,< 50
Cn1c(=O)n(C2CCC(=O)NC2=O)c2ccc(-c3cccc(CCC(=O)Nc4ccc5c(F)c(N6CC(=O)NS6(=O)=O)c(O)cc5c4)c3)cc21 (centres unmarked) [Degrader 80],< 50,150 to 500
C[C@H]1CN(CC(=O)Nc2ccc3c(F)c(N4CC(=O)NS4(=O)=O)c(O)cc3c2)CCN1c1ccc2c(c1)n(C)c(=O)n2C1CCC(=O)NC1=O (some centres unmarked) [Degrader 23],150 to 500,150 to 500
C[C@@H](C(=O)Nc1ccc2c(F)c(N3CC(=O)NS3(=O)=O)c(O)cc2c1)C1CCN(c2ccc3c(c2)n(C)c(=O)n3C2CCC(=O)NC2=O)CC1 (some centres unmarked) [Degrader 106],150 to 500,150 to 500
Cn1c(=O)n(C2CCC(=O)NC2=O)c2ccc(N3CC4(CC(OCC(=O)Nc5ccc6c(F)c(N7CC(=O)NS7(=O)=O)c(O)cc6c5)C4)C3)cc21 (centres unmarked) [Degrader 96],50 to 150,150 to 500
Cn1c(=O)n(C2CCC(=O)NC2=O)c2ccc(-c3ccc4c(cnn4CC(=O)Nc4ccc5c(F)c(N6CC(=O)NS6(=O)=O)c(O)cc5c4)c3)cc21 (centres unmarked) [Degrader 29],50 to 150,< 50
Cn1c(=O)n(C2CCC(=O)NC2=O)c2ccc(N3CCC(O)(CC(=O)N4CC(Oc5ccc6cc(O)c(N7CC(=O)NS7(=O)=O)c(F)c6c5)C4)CC3)cc21 (centres unmarked) [Degrader 67],150 to 500,150 to 500
Cn1c(=O)n(C2CCC(=O)NC2=O)c2ccc(C3=CCC(CC(=O)Nc4ccc5c(F)c(N6CC(=O)NS6(=O)=O)c(O)cc5c4)CC3)cc21 (centres unmarked) [Degrader 157],50 to 150,50 to 150
Cc1nn(CC(=O)Nc2ccc3c(F)c(N4CC(=O)NS4(=O)=O)c(O)cc3c2)c2ccc(-c3ccc4c(c3)n(C)c(=O)n4C3CCC(=O)NC3=O)cc12 (centres unmarked) [Degrader 95],< 50,< 50
Cn1c(=O)n(C2CCC(=O)NC2=O)c2ccc(N3CCC4(CC3)CN(CC(=O)Nc3ccc5c(F)c(N6CC(=O)NS6(=O)=O)c(O)cc5c3)C4)cc21 (centres unmarked) [Degrader 84],50 to 150,150 to 500
Cn1c(=O)n(C2CCC(=O)NC2=O)c2ccc(N3CCC(CC4CC4C(=O)Nc4ccc5c(F)c(N6CC(=O)NS6(=O)=O)c(O)cc5c4)CC3)cc21 (centres unmarked) [Degrader 68],50 to 150,50 to 150
C[C@H]1CN(CC(=O)Nc2ccc3c(F)c(N4CC(=O)NS4(=O)=O)c(O)cc3c2)CCN1c1cc2c(cc1F)n(C1CCC(=O)NC1=O)c(=O)n2C (some centres unmarked) [Degrader 65],150 to 500,≥ 500

Compound,DC50 (PTPN2 [1]) [nM],DC50 (PTPN2 [2]) [nM]
C[C@@H]1CN(c2ccc3c(c2)n(C)c(=O)n3C2CCC(=O)NC2=O)CCN1CC(=O)Nc1ccc2c(F)c(N3CC(=O)NS3(=O)=O)c(O)cc2c1 (some centres unmarked) [Degrader 91],50 to 150,150 to 500
Cn1c(=O)n(C2CCC(=O)NC2=O)c2ccc(C3CC4CCC(C3)N4CC(=O)Nc3ccc4c(F)c(N5CC(=O)NS5(=O)=O)c(O)cc4c3)cc21 (centres unmarked) [Degrader 50],50 to 150,150 to 500
Cn1nc(C2CCC(=O)NC2=O)c2ccc(C3CCN(CCNC(=O)c4ccc5c(F)c(N6CC(=O)NS6(=O)=O)c(O)cc5c4)CC3(F)F)cc21 (centres unmarked) [Degrader 61],150 to 500,150 to 500
Cn1c(=O)n(C2CCC(=O)NC2=O)c2ccc(N3CCN(CC(=O)Nc4ccc5c(F)c(N6CC(=O)NS6(=O)=O)c(O)cc5c4)CC3)c(F)c21 (centres unmarked) [Degrader 57],50 to 150,150 to 500
C[C@@H]1CN(CC(=O)Nc2ccc3c(F)c(N4CC(=O)NS4(=O)=O)c(O)cc3c2)CCN1c1ccc2c(c1F)n(C)c(=O)n2C1CCC(=O)NC1=O (some centres unmarked) [Degrader 148],50 to 150,150 to 500
C[C@@H]1CN(c2ccc3c(c2)n(C)c(=O)n3C2CCC(=O)NC2=O)CC[C@H]1CC(=O)Nc1ccc2c(F)c(N3CC(=O)NS3(=O)=O)c(O)cc2c1 (some centres unmarked) [Degrader 132],50 to 150,50 to 150
Cn1c(=O)n(C2CCC(=O)NC2=O)c2ccc3c(c21)CCCN3C1CCN(CC(=O)Nc2ccc3c(F)c(N4CC(=O)NS4(=O)=O)c(O)cc3c2)CC1 (centres unmarked) [Degrader 75],≥ 500,≥ 500
Cn1c(=O)n(C2CCC(=O)NC2=O)c2ccc(-c3ccn(CC(=O)Nc4ccc5c(F)c(N6CC(=O)NS6(=O)=O)c(O)cc5c4)c(=O)c3)cc21 (centres unmarked) [Degrader 32],50 to 150,50 to 150
Cn1c(=O)n(C2CCC(=O)NC2=O)c2cc(F)c(-c3ccc(CC(=O)Nc4ccc5c(F)c(N6CC(=O)NS6(=O)=O)c(O)cc5c4)cc3)cc21 (centres unmarked) [Degrader 44],150 to 500,150 to 500
Cn1c(=O)n(C2CCC(=O)NC2=O)c2ccc([C@@H]3CCN(CC(=O)Nc4ccc5c(F)c(N6CC(=O)NS6(=O)=O)c(O)cc5c4)C[C@H]3F)cc21 (some centres unmarked) [Degrader 38],< 50,< 50
COCCn1c(=O)n(C2CCC(=O)NC2=O)c2ccc(-c3ccc(CC(=O)Nc4ccc5c(F)c(N6CC(=O)NS6(=O)=O)c(O)cc5c4)cc3)cc21 (centres unmarked) [Degrader 45],150 to 500,150 to 500
C[C@H](C(=O)Nc1ccc2c(F)c(N3CC(=O)NS3(=O)=O)c(O)cc2c1)N1CCC(c2ccc3c(c2)n(C)c(=O)n3C2CCC(=O)NC2=O)CC1 (some centres unmarked) [Degrader 103],< 50,≥ 500
Cn1c(=O)n(C2CCC(=O)NC2=O)c2ccc(C3CCN(CCNC(=O)Nc4ccc5c(F)c(N6CC(=O)NS6(=O)=O)c(O)cc5c4)CC3)cc21 (centres unmarked) [Degrader 52],< 50,50 to 150
Cn1c(=O)n(C2CCC(=O)NC2=O)c2ccc([C@H]3CN(CC(=O)Nc4ccc5c(F)c(N6CC(=O)NS6(=O)=O)c(O)cc5c4)CC[C@@H]3F)cc21 (some centres unmarked) [Degrader 142],150 to 500,150 to 500
Cn1cc(N2CCC(=O)NC2=O)c2cc(F)c(-c3ccc(CC(=O)Nc4ccc5c(F)c(N6CC(=O)NS6(=O)=O)c(O)cc5c4)cc3)cc21 [Degrader 125],150 to 500,150 to 500
Cn1c(=O)n(C2CCC(=O)NC2=O)c2ccc(N3CC4(CCN(CC(=O)Nc5ccc6c(F)c(N7CC(=O)NS7(=O)=O)c(O)cc6c5)CC4)C3)cc21 (centres unmarked) [Degrader 92],150 to 500,≥ 500
O=C1CCC(n2c(=O)n(C3COC3)c3cc(C4CCN(CC(=O)Nc5ccc6c(F)c(N7CC(=O)NS7(=O)=O)c(O)cc6c5)CC4)ccc32)C(=O)N1 (centres unmarked) [Degrader 9],150 to 500,150 to 500
